# From patent US5140011A, “Amino acid derivatives which have renin inhibiting activity” (Hoffmann-La Roche, Inc., priority 1989, dated 1992)
# Target: T1, human renin (Homo sapiens, UniProt P00797)
# T1 sequence (P00797 67-406): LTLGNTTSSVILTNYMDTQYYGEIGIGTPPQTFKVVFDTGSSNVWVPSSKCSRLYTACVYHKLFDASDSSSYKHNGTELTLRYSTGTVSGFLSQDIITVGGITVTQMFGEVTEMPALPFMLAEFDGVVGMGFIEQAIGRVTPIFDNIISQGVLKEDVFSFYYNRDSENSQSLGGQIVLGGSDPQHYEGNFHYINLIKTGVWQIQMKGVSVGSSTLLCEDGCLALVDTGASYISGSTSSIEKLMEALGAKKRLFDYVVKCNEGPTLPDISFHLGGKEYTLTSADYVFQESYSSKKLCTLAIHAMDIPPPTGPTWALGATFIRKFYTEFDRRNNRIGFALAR
# Assay: In vitro test with pure human renin
# Assay type: biochemical
# Settings: human tetradecapeptide renin substrate (hTD), pH 7.4, 3 hours at 37° C. vs 4° C., angiotensin I measured via RIA
# Protocol: In vitro test with pure human renin
# The test is carried out in Eppendorf test tubes. The incubation mixture consists of (1) 100 μl of human renin in buffer A (0.1M sodium phosphate solution, pH 7.4, containing 0.1% bovine serum albumin, 0.1% sodium azide and 1 mM ethylenediaminetetraacetic acid), sufficient for a renin activity of 2-3 ng of angiotensin I/ml/hr.; (2) 145 μl of buffer A; (3) 30 μl of a 10 μM human tetradecapeptide renin substrate (hTD) in 10 mM hydrochloric acid; (4) 15 μl of dimethyl sulphoxide with or without inhibitor and (5) 10 μl of a 0.03 molar solution of hydroxyquinoline sulphate in water.
# The samples are incubated for 3 hours at 37° C. or 4° C. in triplicate. 2×100 μl samples per experimental test tube are used in order to measure the production of angiotensin I via RIA (standard radioimmunoassay; clinical assay solid phase kit). Cross reactivities of the antibody used in the RIA are: angiotensin I 100%; angiotensin II 0.0013%; hTD (angiotensin I-Val-Ile-His-Ser-OH) 0.09%. The production of angiotensin I is determined by the difference between the experiment at 37° C. and that at 4° C.
# The following controls are carried out:
# (a) Incubation of hTD samples without renin and without inhibitor at 37° C. and 4° C. The difference between these two values gives the base value of angiotensin I production.
# (b) Incubation of hTD samples with renin, but without inhibitor at 37° C. and 4° C. The difference between these values give the maximal value of angiotensin I production.
# In each sample the base value of the angiotensin I production is subtracted from the angiotensin I production which is determined. The difference between the maximal value and the base value gives the value of the maximal substrate hydrolysis (=100%) by renin.
# The results are given as IC50 values which denote that concentration of the inhibitor at which the enzymatic activity is inhibited by 50%. The IC50 values are determined from a linear regression curve from a logit-log plot.
row,Compound,IC50
1,"CCCCCC(=O)[C@@H](C[C@H](O)[C@H](CC1CCCCC1)NC(=O)[C@H](Cc1c[nH]cn1)NC(=O)[C@@H](CC(=O)C(C)(C)C)Cc1ccccc1)C(C)C [C, (S)-N-[(1S,2S,4S)-1-(cyclohexylmethyl)-2-hydroxy-4-isopropyl-5-oxodecyl]-α-[(R)-α-(3,3-dimethyl-2-oxobutyl]hydrocinnamamido]imidazole-4-propionamide]",7 nM
2,"CCCCNC(=O)C[C@@H](C[C@H](O)[C@H](CC1CCCCC1)NC(=O)[C@H](Cc1c[nH]cn1)NC(=O)[C@H](Cc1ccccc1)NC(=O)OC(C)(C)C)C(C)C [B, t-butyl [(S)-α-[[(S)-1-[[(1S,2S,4R)-4-[(butylcarbamoyl)methyl]-1-(cyclohexylmethyl)-2-hydroxy-5-methylhexyl]carbamoyl]-2-imidazol-4-ylethyl]carbamoyl]phenethyl]carbamate]",9 nM
3,"CC(C)[C@@H](/C=C/C(=O)NCc1ccccn1)C[C@H](O)[C@H](CC1CCCCC1)NC(=O)[C@H](Cc1c[nH]cn1)NC(=O)[C@@H](CC(=O)C(C)(C)C)Cc1ccccc1 [D, (S)-N-[(1S,2S,4S,E)-1-(cyclohexylmethyl)-2-hydroxy-4-isopropyl-6-[(2-pyridylmethyl)carbamoyl]-5-hexenyl]-α-[(R)-α-(3,3-dimethyl-2-oxobutyl)hydrocinnamamido]imidazole-4-propionamide]",13 nM
4,"CC(C)[C@@H](CCOC(=O)C(C)(C)C)C[C@H](O)[C@H](CC1CCCCC1)NC(=O)C(Cc1c[nH]cn1)NC(=O)[C@H](Cc1ccccc1)NC(=O)[C@H]1CCCN1C(=O)OC(C)(C)C (mixture of isomers) [F, t-butyl (R)-2-[[(S)-α-[[(R and S)-1-[[(1S,2S,4S)-1-(cyclohexylmethyl]-2-hydroxy-4-isopropyl-6-(pivaloyloxy)hexyl]carbamoyl]-2-imidazol-4-ylethyl]carbamoyl]phenethyl]carbamoyl]-1-pyrrolidinecarboxylate]",10 nM
5,"CCC(=O)OCC[C@@H](C[C@H](O)[C@H](CC1CCCCC1)NC(=O)[C@H](Cc1c[nH]cn1)NC(=O)[C@H](Cc1ccccc1)NC(=O)OC(C)(C)C)C(C)C [E, t-butyl [(S)-α-[[(S)-1-[[(1S,2S,4S)-1-(cyclohexylmethyl)-2-hydroxy-4-isopropyl-6-(propionyloxy)hexyl]carbamoyl]-2-imidazol-4-ylethyl]carbamoyl]phenethyl]carbamate]",9 nM
6,"CCCCNC(=O)C[C@@H](C[C@H](O)[C@H](CC1CCCCC1)NC(=O)[C@H](Cc1c[nH]cn1)NC(=O)[C@@H](CC(=O)C(C)(C)C)Cc1ccccc1)C(C)C [A, (S)-N-[(1S,2S,4R)-4-[(Butylcarbamoyl)methyl]-1-(cyclohexylmethyl)-2-hydroxy-5-methylhexyl]-α-[(R)-α-(3,3-dimethyl-2-oxobutyl)hydrocinnamamido]imidazole-4-propionamide]",3 nM
7,"CC(C)C(CC(O)C(CC1CCCCC1)NC(=O)C(Cc1c[nH]cn1)NC(=O)C(Cc1ccccc1)NC(=O)C1CCCN1C(=O)OC(C)(C)C)C(O)CNCc1ccccn1 (racemic) [I, (2RS,3S,5S,6S)-6-(Boc-D-Pro-Phe-His-NH)-7-cyclohexyl-3-isopropyl-1-[(2-pyridylmethyl)amino]-2,5-heptanediol]",8 nM
8,"CC(C)C(CC(O)C(CC1CCCCC1)NC(=O)C(Cc1c[nH]cn1)NC(=O)C(Cc1ccccc1)NC(=O)C1CCCN1C(=O)OC(C)(C)C)C(O)CNCCc1ccccc1 (single isomer, unassigned) [G, (2S or R,3S,5S,6S)-6-(Boc-D-Pro-Phe-His-NH)-7-cyclohexyl-3-isopropyl-1-(phenethylamino)-2,5-heptanediol]",11 nM
9,"CC(C)C(CC(O)C(CC1CCCCC1)NC(=O)C(Cc1c[nH]cn1)NC(=O)C(Cc1ccccc1)NC(=O)C1CCCN1C(=O)OC(C)(C)C)C(O)CNCCc1ccccc1 (single isomer, unassigned) [H, (2R or S,3S,5S,6S)-6-(Boc-D-Pro-Phe-His-NH)-7-cyclohexyl-3-isopropyl-1-(phenethylamino)-2,5-heptanediol]",4 nM
